# Results as given in PMC5218480 (PLoS ONE, 2017).
# Tested on: MV-4-11 cells
# Experiment: Gene expression microarray analysis (Affymetrix PrimeView) and GSEA
# Format: cell-based, human
# Set-up: RFU PODN (11730768_x_at) / Fold change /veh PODN (11730768_x_at) / RFU LINC00158 (11744669_a_at) / Fold change /veh LINC00158 (11744669_a_at) / RFU DUSP10 (11751237_a_at) / Fold change /veh DUSP10 (11751237_a_at) / RFU ID3 (11757404_x_at) / Fold change /veh ID3 (11757404_x_at) / RFU PLEKHG5 (11737974_s_at) / Fold change /veh PLEKHG5 (11737974_s_at) / RFU LRRC4B (11730491_at) / Fold change /veh LRRC4B (11730491_at) / RFU GIMAP4 (11747438_a_at) / Fold change /veh GIMAP4 (11747438_a_at) / RFU KRT8 (11758183_x_at) / Fold change /veh KRT8 (11758183_x_at) / RFU CNN1 (11734310_a_at) / Fold change /veh CNN1 (11734310_a_at) / RFU VPS37D (11726825_at) / Fold change /veh VPS37D (11726825_at) / RFU C10orf10 (11716522_x_at) / Fold change /veh C10orf10 (11716522_x_at) / RFU KIR2DL2 /// KIR2DL4 /// KIR2DL5A /// KIR2DL5B /// KIR2DS1 /// KIR2DS2 /// KIR2DS3 /// KIR2DS4 /// KIR3DL3 /// KIR3DL3 /// KIR3DS1 (11738374_at) / Fold change /veh KIR2DL2 /// KIR2DL4 /// KIR2DL5A /// KIR2DL5B /// KIR2DS1 /// KIR2DS2 /// KIR2DS3 /// KIR2DS4 /// KIR3DL3 /// KIR3DL3 /// KIR3DS1 (11738374_at) / RFU C1QL1 (11718748_at) / Fold change /veh C1QL1 (11718748_at) / RFU TMPRSS4 (11747572_a_at) / Fold change /veh TMPRSS4 (11747572_a_at) / RFU HAMP (11756126_x_at) / Fold change /veh HAMP (11756126_x_at) / RFU RNFT2 (11725882_a_at) / Fold change /veh RNFT2 (11725882_a_at) / RFU NR4A2 (11747474_a_at) / Fold change /veh NR4A2 (11747474_a_at) / RFU ABCC12 (11746883_a_at) / Fold change /veh ABCC12 (11746883_a_at) / RFU TMEM136 (11760407_x_at) / Fold change /veh TMEM136 (11760407_x_at) / RFU CLDN22 /// WWC2 (11732394_at) / Fold change /veh CLDN22 /// WWC2 (11732394_at) / RFU HLA-DPB1 (11760878_x_at) / Fold change /veh HLA-DPB1 (11760878_x_at) / RFU SPINT1 (11716480_a_at) / Fold change /veh SPINT1 (11716480_a_at) / RFU GAP43 (11754022_s_at) / Fold change /veh GAP43 (11754022_s_at) / RFU A4GNT (11735810_at) / Fold change /veh A4GNT (11735810_at) / RFU PRB3 (11715151_x_at) / Fold change /veh PRB3 (11715151_x_at) / RFU TUBB4B (11761932_at) / Fold change /veh TUBB4B (11761932_at) / RFU CAPN14 (11732068_a_at) / Fold change /veh CAPN14 (11732068_a_at) / RFU TMCC2 (11721928_a_at) / Fold change /veh TMCC2 (11721928_a_at) / RFU IRGQ (11745062_a_at) / Fold change /veh IRGQ (11745062_a_at) / RFU FAM174B (11720279_a_at) / Fold change /veh FAM174B (11720279_a_at) / RFU TMPRSS4 (11748680_a_at) / Fold change /veh TMPRSS4 (11748680_a_at) / RFU FAM212B (11763350_a_at) / Fold change /veh FAM212B (11763350_a_at) / RFU PLEKHG5 (11743358_a_at) / Fold change /veh PLEKHG5 (11743358_a_at) / RFU ZSCAN30 (11745921_a_at) / Fold change /veh ZSCAN30 (11745921_a_at) / RFU CMKLR1 (11741424_a_at) / Fold change /veh CMKLR1 (11741424_a_at) / RFU LOC101060620 /// MAPK8IP1 (11723275_at) / Fold change /veh LOC101060620 /// MAPK8IP1 (11723275_at) / RFU SPTSSB (11747773_x_at) / Fold change /veh SPTSSB (11747773_x_at) / RFU PRSS12 (11739890_at) / Fold change /veh PRSS12 (11739890_at) / RFU BIN1 (11741810_x_at) / Fold change /veh BIN1 (11741810_x_at) / RFU WNT11 (11732464_a_at) / Fold change /veh WNT11 (11732464_a_at) / RFU C10orf10 (11716521_a_at) / Fold change /veh C10orf10 (11716521_a_at) / RFU C5orf56 (11738089_at) / Fold change /veh C5orf56 (11738089_at) / RFU CYB561 (11721691_x_at) / Fold change /veh CYB561 (11721691_x_at) / RFU ANKRD19P (11752326_a_at) / Fold change /veh ANKRD19P (11752326_a_at) / RFU OR2T12 /// OR2T33 /// OR2T8 (11738714_s_at) / Fold change /veh OR2T12 /// OR2T33 /// OR2T8 (11738714_s_at) / RFU VCAN (11748164_a_at) / Fold change /veh VCAN (11748164_a_at) / RFU JSRP1 (11732532_at) / Fold change /veh JSRP1 (11732532_at) / RFU KRTAP10-11 (11738290_x_at) / Fold change /veh KRTAP10-11 (11738290_x_at) / RFU MYO3A (11730013_a_at) / Fold change /veh MYO3A (11730013_a_at) / RFU EBF3 (11725865_a_at) / Fold change /veh EBF3 (11725865_a_at) / RFU CAMK2N1 (11719241_x_at) / Fold change /veh CAMK2N1 (11719241_x_at) / RFU C5orf56 (11738088_a_at) / Fold change /veh C5orf56 (11738088_a_at) / RFU OLFML3 (11715873_a_at) / Fold change /veh OLFML3 (11715873_a_at) / RFU LOC100653217 /// NTM (11731650_a_at) / Fold change /veh LOC100653217 /// NTM (11731650_a_at) / RFU MAPK11 (11762145_a_at) / Fold change /veh MAPK11 (11762145_a_at) / RFU FIZ1 (11724087_x_at) / Fold change /veh FIZ1 (11724087_x_at) / RFU OASL (11726364_x_at) / Fold change /veh OASL (11726364_x_at) / RFU SOX15 (11748057_x_at) / Fold change /veh SOX15 (11748057_x_at) / RFU CD79A (11719716_a_at) / Fold change /veh CD79A (11719716_a_at) / RFU HIST1H1D (11736915_at) / Fold change /veh HIST1H1D (11736915_at) / RFU CASKIN2 (11723855_a_at) / Fold change /veh CASKIN2 (11723855_a_at) / RFU LOC730098 (11760151_x_at) / Fold change /veh LOC730098 (11760151_x_at) / RFU OR4N2 (11742367_at) / Fold change /veh OR4N2 (11742367_at) / RFU PRRT2 (11749266_a_at) / Fold change /veh PRRT2 (11749266_a_at) / RFU SNX32 (11753110_a_at) / Fold change /veh SNX32 (11753110_a_at) / RFU CDHR5 (11726645_a_at) / Fold change /veh CDHR5 (11726645_a_at) / RFU RCAN1 (11760418_a_at) / Fold change /veh RCAN1 (11760418_a_at) / RFU FAM167A (11723789_a_at) / Fold change /veh FAM167A (11723789_a_at) / RFU FAM26E (11764081_at) / Fold change /veh FAM26E (11764081_at) / RFU ISYNA1 (11749810_s_at) / Fold change /veh ISYNA1 (11749810_s_at) / RFU ACY1 (11761880_at) / Fold change /veh ACY1 (11761880_at) / RFU 11764098_at / Fold change /veh 11764098_at / RFU SAMD14 (11745864_x_at) / Fold change /veh SAMD14 (11745864_x_at) / RFU NPB (11741838_a_at) / Fold change /veh NPB (11741838_a_at) / RFU TMPRSS6 (11731388_a_at) / Fold change /veh TMPRSS6 (11731388_a_at) / RFU KRTAP10-2 (11738614_at) / Fold change /veh KRTAP10-2 (11738614_at) / RFU ARHGAP8 /// PRR5-ARHGAP8 (11727945_x_at) / Fold change /veh ARHGAP8 /// PRR5-ARHGAP8 (11727945_x_at) / RFU KRTAP5-7 /// NADSYN1 (11734609_at) / Fold change /veh KRTAP5-7 /// NADSYN1 (11734609_at) / RFU RASL12 (11751679_a_at) / Fold change /veh RASL12 (11751679_a_at) / RFU CDKN2B (11736163_a_at) / Fold change /veh CDKN2B (11736163_a_at) / RFU PRF1 (11729649_at) / Fold change /veh PRF1 (11729649_at) / RFU, ZNF638 /// ZNF638-IT1 / Fold change vs veh, ZNF638 /// ZNF638-IT1 / RFU, PANK3 / Fold change vs veh, PANK3 / RFU, SH3YL1 / Fold change vs veh, SH3YL1 / RFU, ZEB2 / Fold change vs veh, ZEB2 / RFU, NRIP1 / Fold change vs veh, NRIP1 / RFU, PTTG1IP / Fold change vs veh, PTTG1IP / RFU, CAPN2 / Fold change vs veh, CAPN2 / RFU, MED14 / Fold change vs veh, MED14 / RFU, SNORA58 / Fold change vs veh, SNORA58 / RFU, C1orf63 / Fold change vs veh, C1orf63 / RFU, LRRFIP1 / Fold change vs veh, LRRFIP1 / RFU, NDUFAF7 / Fold change vs veh, NDUFAF7 / RFU, SLC12A2 / Fold change vs veh, SLC12A2 / RFU, IBTK / Fold change vs veh, IBTK / RFU, ESF1 / Fold change vs veh, ESF1 / Fold change vs veh, TMEM50B / RFU, TAOK1 / Fold change vs veh, TAOK1 / RFU, ACBD3 / Fold change vs veh, ACBD3 / RFU, TMA16 / Fold change vs veh, TMA16 / RFU, RWDD3 / Fold change vs veh, RWDD3 / RFU, BCAT1 / Fold change vs veh, BCAT1 / RFU, EDEM3 / Fold change vs veh, EDEM3 / RFU, TMEM33 / Fold change vs veh, TMEM33 / RFU, WDR75 / Fold change vs veh, WDR75 / RFU, AHCTF1 / Fold change vs veh, AHCTF1 / RFU, TFRC / Fold change vs veh, TFRC / RFU, ZDHHC17 / Fold change vs veh, ZDHHC17 / RFU, NOM1 / Fold change vs veh, NOM1 / RFU, ARL8B / Fold change vs veh, ARL8B / RFU, ZBTB11 / Fold change vs veh, ZBTB11 / RFU, TAMM41 / Fold change vs veh, TAMM41 / RFU, KIAA1704 /// LOC100996395 / Fold change vs veh, KIAA1704 /// LOC100996395 / RFU, ING1 / Fold change vs veh, ING1 / RFU, TRMT61B / Fold change vs veh, TRMT61B / RFU, FUBP3 / Fold change vs veh, FUBP3 / RFU, TP53 / Fold change vs veh, TP53 / RFU, TNKS2 / Fold change vs veh, TNKS2 / RFU, ZFP14 / Fold change vs veh, ZFP14 / RFU, ACTR2 / Fold change vs veh, ACTR2 / RFU, PPP3R1 / Fold change vs veh, PPP3R1 / RFU, PIK3R1 / Fold change vs veh, PIK3R1 / RFU, HNRNPA1 / Fold change vs veh, HNRNPA1 / RFU, RNF170 / Fold change vs veh, RNF170 / RFU, ZNF28 / Fold change vs veh, ZNF28 / RFU, RNGTT / Fold change vs veh, RNGTT / RFU, OGT / Fold change vs veh, OGT / RFU, BRD1 / Fold change vs veh, BRD1 / RFU, MARS / Fold change vs veh, MARS / RFU, ZNF655 / Fold change vs veh, ZNF655 / RFU, FAHD1 / Fold change vs veh, FAHD1 / RFU, BDP1 / Fold change vs veh, BDP1 / RFU, LRRCC1 / Fold change vs veh, LRRCC1 / RFU, ARID1A / Fold change vs veh, ARID1A / RFU, ZNF146 / Fold change vs veh, ZNF146 / RFU, ZNF330 / Fold change vs veh, ZNF330 / RFU, GPN3 / Fold change vs veh, GPN3 / RFU, C9orf123 / Fold change vs veh, C9orf123 / RFU, N4BP2L2 / Fold change vs veh, N4BP2L2 / RFU, ARFIP1 / Fold change vs veh, ARFIP1 / RFU, FAM179B / Fold change vs veh, FAM179B / RFU, BCL10 / Fold change vs veh, BCL10 / RFU, UHRF1BP1L / Fold change vs veh, UHRF1BP1L / RFU, BET1 / Fold change vs veh, BET1 / RFU, CNOT2 / Fold change vs veh, CNOT2 / RFU, ZNF268 / Fold change vs veh, ZNF268 / Fold change vs veh, ZNF507 / RFU, DGCR2 / Fold change vs veh, DGCR2 / RFU, WDSUB1 / Fold change vs veh, WDSUB1 / Fold change vs veh, HSP90B1 /// MIR3652 / RFU, ADSS / Fold change vs veh, ADSS / RFU, GK / Fold change vs veh, GK / RFU, ZNF148 / Fold change vs veh, ZNF148 / RFU, TAF9 / Fold change vs veh, TAF9 / RFU, SLC1A5 / Fold change vs veh, SLC1A5 / RFU, SLMO2 / Fold change vs veh, SLMO2 / RFU, ABCC4 / Fold change vs veh, ABCC4 / RFU, LOC101060439 /// RAP1B / Fold change vs veh, LOC101060439 /// RAP1B / RFU, RFX7 / Fold change vs veh, RFX7 / RFU, GTPBP10 / Fold change vs veh, GTPBP10 / RFU, CNEP1R1 / Fold change vs veh, CNEP1R1 / RFU, BIVM-ERCC5 /// ERCC5 / Fold change vs veh, BIVM-ERCC5 /// ERCC5 / RFU, ILF3 / Fold change vs veh, ILF3 / RFU 11762660_at / Fold change /veh 11762660_at / RFU VCAN (11757783_s_at) / Fold change /veh VCAN (11757783_s_at) / RFU DDX43 (11728927_at) / Fold change /veh DDX43 (11728927_at) / RFU KRT8 (11758188_x_at) / Fold change /veh KRT8 (11758188_x_at) / RFU NKD1 (11759106_at) / Fold change /veh NKD1 (11759106_at) / RFU SRD5A1 (11742802_a_at) / Fold change /veh SRD5A1 (11742802_a_at) / RFU TPSAB1 /// TPSB2 (11721975_s_at) / Fold change /veh TPSAB1 /// TPSB2 (11721975_s_at) / RFU GSTM3 (11746129_a_at) / Fold change /veh GSTM3 (11746129_a_at) / RFU IL23R (11737362_x_at) / Fold change /veh IL23R (11737362_x_at) / RFU TMEM51 (11727254_a_at) / Fold change /veh TMEM51 (11727254_a_at) / RFU PIWIL2 (11732686_x_at) / Fold change /veh PIWIL2 (11732686_x_at) / RFU ORM1 (11744905_x_at) / Fold change /veh ORM1 (11744905_x_at) / RFU CCDC152 (11743942_at) / Fold change /veh CCDC152 (11743942_at) / RFU ECM1 (11717891_a_at) / Fold change /veh ECM1 (11717891_a_at) / RFU IL23R (11748794_a_at) / Fold change /veh IL23R (11748794_a_at) / RFU TNFAIP8L3 (11732012_x_at) / Fold change /veh TNFAIP8L3 (11732012_x_at) / RFU MBOAT4 (11741988_at) / Fold change /veh MBOAT4 (11741988_at) / RFU 11764193_at / Fold change /veh 11764193_at / RFU TMEM53 (11763286_at) / Fold change /veh TMEM53 (11763286_at) / RFU MAGEB2 (11727129_at) / Fold change /veh MAGEB2 (11727129_at) / RFU TMEM200A (11744735_a_at) / Fold change /veh TMEM200A (11744735_a_at) / RFU CCDC152 (11751479_a_at) / Fold change /veh CCDC152 (11751479_a_at) / RFU FAM211A (11726209_a_at) / Fold change /veh FAM211A (11726209_a_at) / RFU RGS16 (11746705_a_at) / Fold change /veh RGS16 (11746705_a_at) / RFU VCAN (11755009_s_at) / Fold change /veh VCAN (11755009_s_at) / RFU RHOB (11743442_s_at) / Fold change /veh RHOB (11743442_s_at) / RFU RGS16 (11720943_a_at) / Fold change /veh RGS16 (11720943_a_at) / RFU RGS16 (11720944_at) / Fold change /veh RGS16 (11720944_at) / RFU, VPS4B / Fold change vs veh, VPS4B / RFU, CREB1 / Fold change vs veh, CREB1 / RFU, DNAJC13 / Fold change vs veh, DNAJC13 / RFU, GNAQ / Fold change vs veh, GNAQ / RFU, CDK5R1 / Fold change vs veh, CDK5R1 / RFU, ZRANB3 / Fold change vs veh, ZRANB3 / RFU, CUL4A / Fold change vs veh, CUL4A / RFU, CCNY / Fold change vs veh, CCNY / RFU, UFL1 / Fold change vs veh, UFL1 / RFU, COG3 / Fold change vs veh, COG3 / RFU, DIAPH2 / Fold change vs veh, DIAPH2 / RFU, SKA2 / Fold change vs veh, SKA2 / RFU, AFF3 / Fold change vs veh, AFF3 / RFU, LMF1 / Fold change vs veh, LMF1 / RFU, IPO11 / Fold change vs veh, IPO11 / RFU, DFFB / Fold change vs veh, DFFB / RFU, FOXP1 / Fold change vs veh, FOXP1 / RFU, CARD8 / Fold change vs veh, CARD8 / RFU, STRN3 / Fold change vs veh, STRN3 / RFU, ADK / Fold change vs veh, ADK / RFU, RASSF2 / Fold change vs veh, RASSF2 / RFU, WIPF1 / Fold change vs veh, WIPF1 / RFU, LARP1B / Fold change vs veh, LARP1B / RFU, RASA1 / Fold change vs veh, RASA1 / RFU, RB1 / Fold change vs veh, RB1 / RFU, PPFIA1 / Fold change vs veh, PPFIA1 / RFU, MAT2A / Fold change vs veh, MAT2A / RFU, CCT5 / Fold change vs veh, CCT5 / RFU, WDR92 / Fold change vs veh, WDR92 / RFU, CUX1 / Fold change vs veh, CUX1 / RFU, TTC7A / Fold change vs veh, TTC7A / RFU, TMEM135 / Fold change vs veh, TMEM135 / RFU, DEPTOR / Fold change vs veh, DEPTOR / RFU, CPM / Fold change vs veh, CPM / RFU, DNAJB6 / Fold change vs veh, DNAJB6 / RFU, CACNA2D3 / Fold change vs veh, CACNA2D3 / RFU, DTX4 / Fold change vs veh, DTX4 / RFU, TFCP2 / Fold change vs veh, TFCP2 / RFU, GMCL1 /// GMCL1P1 / Fold change vs veh, GMCL1 /// GMCL1P1 / RFU, AEBP2 / Fold change vs veh, AEBP2 / RFU, SNHG1 /// SNORD22 /// SNORD25 /// SNORD26 /// SNORD27 /// SNORD28 /// SNORD29 /// SNORD31 / Fold change vs veh, SNHG1 /// SNORD22 /// SNORD25 /// SNORD26 /// SNORD27 /// SNORD28 /// SNORD29 /// SNORD31 / Fold change (Aza/veh), C12orf56 (ProbeSet 11735607_a_at) / Fold change (ACY-1035/veh), C12orf56 (ProbeSet 11735607_a_at) / Fold change (Aza/veh), FGFR1OP (ProbeSet 11751329_s_at) / Fold change (ACY-1035/veh), FGFR1OP (ProbeSet 11751329_s_at) / Fold change (Aza/veh), VPS36 (ProbeSet 11739960_a_at) / Fold change (ACY-1035/veh), VPS36 (ProbeSet 11739960_a_at) / RFU SYPL1 (11715823_x_at) / Fold change /veh SYPL1 (11715823_x_at) / RFU IGFBP7 (11715501_s_at) / Fold change /veh IGFBP7 (11715501_s_at) / RFU REEP3 (11722064_at) / Fold change /veh REEP3 (11722064_at) / RFU IGLL1 (11728026_x_at) / Fold change /veh IGLL1 (11728026_x_at): dose or concentration left out as unconfirmed
# Settings: MV-4-11 cells, 48 hours
compound,measurement,value
Nc1ccc(-c2cccs2)cc1NC(=O)c1ccc2c(c1)cc(C1CC1)n2CCN1CCOCC1 [ACY-1035],Fold change /veh OR4N2 (11742367_at),1.06
